Test results: US4442031A, “Immunopotentiating peptides” (Hoffmann-La Roche Inc., priority 1983, dated 1984)
Where no end group is shown, it is not given here.

Tested on: Candida albicans ATCC 10231
Experiment: Protective activity against Candida albicans infection in 5-FU immunosuppressed mice
Type: in vivo
Settings: for Survivors Day 8 / Survivors Day 15: ddY mice; for Survivors at Day 8 after infection: Table 6, i.p., ten times with 5-FU, control 1/7
Description: In a series of examples, the compounds of formula I were tested for protective activity against opportunistic infections in immunosuppressed mice. Female ddY mice (6 weeks old) weighing about 26 g were pretreated daily for ten days with 5-fluorouracil (5-FU) (25 mg/kg/day, i.p.) and with thymosin α1 or with compounds of formula I (i.p.) at varying dosages. The mice were then infected with Candida albicans ATCC 10231 (1×10^5 cells or more) at 24 hour after the last treatment. One control group was administered 5-FU and saline solution and a second control group received neither 5-FU nor compound of formula I prior to infection with Candida albicans. The number of animals surviving eight days after infection with Candida albicans and 15 days after infection with Candida albicans is presented in the table below.
Normal mice (female ddY mice, 6 weeks old) were highly tolerant to infection with Candida albicans ATCC 10231 at relatively low dose (1-2×10^5 cells, iv.). However, when pretreated daily for ten times with 5-FU (25 mg/kg/day, ip.), the mice were susceptible to infection as shown in Table 6. […] Compound A was also shown to be active against infection with Pseudomonas aeruginosa 5E81-1 and Listeria monocytogenes EGD in the immunosuppressed mice (see Tables 7 and 8).

[1] = Example 8, 40.0 μg/kg i.p. daily for ten days with 5-FU
[2] = Example 9, 40.0 μg/kg i.p. daily for ten days with 5-FU
[3] = Example 10, 0.4 μg/kg i.p. daily for ten days with 5-FU
[4] = Example 10, 4.0 μg/kg i.p. daily for ten days with 5-FU
[5] = Example 10, 40.0 μg/kg i.p. daily for ten days with 5-FU
[6] = Example 11, 4.0 μg/kg i.p. daily for ten days with 5-FU
[7] = Example 11, 40.0 μg/kg i.p. daily for ten days with 5-FU
[8] = Example 11, 400.0 μg/kg i.p. daily for ten days with 5-FU
[9] = Example 8, 0.4 μg/kg i.p. daily for ten days with 5-FU
[10] = Example 8, 4.0 μg/kg i.p. daily for ten days with 5-FU
[11] = Example 10, 0.04 μg/kg i.p. daily for ten days with 5-FU
[12] = Example 11, 0.04 μg/kg i.p. daily for ten days with 5-FU
[13] = Example 11, 0.4 μg/kg i.p. daily for ten days with 5-FU

Substance	Survivors Day 8 [1]	Survivors Day 15 [1]	Survivors Day 8 [2]	Survivors Day 8 [3]	Survivors Day 15 [3]	Survivors Day 8 [4]	Survivors Day 15 [4]	Survivors Day 8 [6]	Survivors Day 15 [6]	Survivors at Day 8 after infection (40 μg/kg/day)	further results
thymosin α1 (SDAAVDTSSEITTKDLKEKKEVVEEAEN; ends and bridges not checked; UniProt P01252 2-29, looked up) [peptide isolated from bovine thymus, stimulates maturation, differentiation and function of T cells; U.S. Pat. No. 4,079,127, reference compound]	5/7	5/7	4/7	3/10	3/10	6/10	5/10	3/10	3/10	4/7	Survivors Day 8 [5]: 9/10; Survivors Day 15 [5]: 8/10; Survivors Day 8 [7]: 6/10; Survivors Day 15 [7]: 5/10; Survivors Day 8 [8]: 8/10; Survivors Day 15 [8]: 8/10
KKEVVE [Compound A, L-Lysyl-L-lysyl-L-glutamyl-L-valyl-L-valyl-L-glutamic acid]	5/7	2/7	4/7	9/10	8/10	9/10	8/10	9/10	8/10	4/7	Survivors Day 8 [9]: 6/7; Survivors Day 15 [9]: 5/7; Survivors Day 8 [10]: 5/7; Survivors Day 15 [10]: 4/7; Survivors Day 8 (Example 9, 0.4 μg/kg i.p. daily for ten days with 5-FU): 6/7; Survivors Day 8 (Example 9, 4.0 μg/kg i.p. daily for ten days with 5-FU): 5/7; Survivors Day 8 [11]: 6/10; Survivors Day 15 [11]: 4/10; Survivors Day 8 [12]: 6/10; Survivors Day 15 [12]: 4/10; Survivors Day 8 [13]: 9/10; Survivors Day 15 [13]: 8/10; Survivors at Day 8 after infection (0.4 μg/kg/day): 6/7; Survivors at Day 8 after infection (4 μg/kg/day): 5/7
